From patent US11286268B1, “EIF4E-inhibiting compounds and methods” (EFFECTOR THERAPEUTICS, INC., priority 2019, dated 2022)

What follows are compounds tested against recombinant eIF4E (Homo sapiens (Human), UniProt P06730) (assay: Fluorescence polarization competition assay for eIF4E binding potency). Conditions: inhibition of eIF4E/EDA-m7GDP-ATTO-550 binding; calculated IC50 values, Table 4B; read-out: IC50.
Summary of the method: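 IC50 derived from fluorescence polarization over an 8-point, 3-fold compound series after 30 min room-temperature equilibration in the dark. Mix: eIF4E 75 nM pre-bound 5 min to 20 nM EDA-m^7GDP-ATTO-550; buffer 20 mM Tris pH 7.5, 100 mM NaCl, 1 mM DTT, 0.02% Tween-20; DMSO 1%.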

Sequence of recombinant eIF4E (P06730 whole entry): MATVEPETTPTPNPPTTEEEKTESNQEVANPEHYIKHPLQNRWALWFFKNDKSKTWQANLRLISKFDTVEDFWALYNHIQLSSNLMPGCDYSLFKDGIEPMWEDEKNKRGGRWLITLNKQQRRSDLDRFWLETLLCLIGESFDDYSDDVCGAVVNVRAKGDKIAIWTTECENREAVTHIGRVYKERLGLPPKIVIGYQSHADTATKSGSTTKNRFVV

| SMILES | IC50 |
| --- | --- |
| Cc1nc2cnc(N(C)[C@H]3CC[C@H](CN(C)CC(C)(F)F)CC3)c(C#N)c2c(=O)n1CC#Cc1ccc(Cl)cc1-c1ccnc2c(C(=O)O)csc12 [compound 1583] | 58.2 nM |
| Cc1nc2cnc(N(C)C3CCN(CC4(CF)CCC4)CC3)c(C#N)c2c(=O)n1CC#Cc1ccc(Cl)cc1-c1ccnc2c(C(=O)O)csc12 [compound 1584] | 36.9 nM |
| Cc1nc2cnc(N(C)C3CCN(CC(F)(F)Cl)CC3)c(C#N)c2c(=O)n1CC#Cc1ccc(Cl)cc1-c1ccnc2c(C(=O)O)csc12 [compound 1585] | 15.2 nM |
| Cc1nc2cnc(N(C)C3CCN(CC(C)(C)C(F)(F)F)CC3)c(C#N)c2c(=O)n1CC#Cc1ccc(Cl)cc1-c1ccnc2c(C(=O)O)csc12 [compound 1586] | 31.8 nM |
| Cc1nc2cnc(N(C)C3CCN(CC4(C(F)(F)F)CC4)CC3)c(C#N)c2c(=O)n1CC#Cc1ccc(Cl)cc1-c1ccnc2c(C(=O)O)csc12 [compound 1587] | 39.7 nM |
| Cc1nc2cnc(N(C)C3CCN(CC4(C(F)(F)F)CCC4)CC3)c(C#N)c2c(=O)n1CC#Cc1ccc(Cl)cc1-c1ccnc2c(C(=O)O)csc12 [compound 1588] | 26.4 nM |
| Cc1nc2cnc(N(C)C3CCN(C4CC(F)(F)C4)CC3)c(C#N)c2c(=O)n1CC#Cc1ccc(Cl)cc1-c1ccnc2c(C(=O)NS(C)(=O)=O)csc12 [compound 1589] | 12.4 nM |
| Cc1nc2cnc(N(C)C3CCN(C4(C(F)F)COC4)CC3)c(C#N)c2c(=O)n1CC#Cc1ccc(Cl)cc1-c1ccnc2c(C(=O)NS(C)(=O)=O)csc12 [compound 1590] | 36 nM |
| Cc1nc2cnc(N3CCC(N(CC(F)F)C4COC4)CC3)c(C#N)c2c(=O)n1CC#Cc1ccc(Cl)cc1-c1ccnc2c(C(=O)NS(=O)(=O)CC(F)F)csc12 [compound 1591] | 36.2 nM |
| Cc1nc2cnc(N3CCC(N(C)C4CC(F)(F)C4)CC3)c(C#N)c2c(=O)n1CC#Cc1ccc(Cl)cc1-c1ccnc2c(C(=O)O)csc12 [compound 1592] | 20.3 nM |
| Cc1nc2cnc(N(C)C3CCN(CC(F)(F)F)CC3)c(C#N)c2c(=O)n1CC#Cc1ccc(Cl)cc1-c1ccnc2c(C(=O)NS(=O)(=O)CC(F)(F)F)csc12 [compound 1593] | 61.6 nM |
| Cc1nc2cnc(N(C)C3CCN(CC(F)(F)F)CC3)c(C#N)c2c(=O)n1CC#Cc1ccc(Cl)cc1-c1ccnc2c(C(N)=O)csc12 [compound 1594] | 442 nM |
| Cc1nc2cnc(N(C)C3CCN(CC(C)(F)F)CC3)c(C#N)c2c(=O)n1CC#Cc1ccc(Cl)cc1-c1ccnc2c(C(=O)NS(=O)(=O)CC(F)(F)F)csc12 [compound 1595] | 54.8 nM |
| Cc1nc2cnc(N(C)C3CCN(CC(C)(F)F)CC3)c(C#N)c2c(=O)n1CC#Cc1ccc(Cl)cc1-c1ccnc2c(C(N)=O)csc12 [compound 1596] | 654 nM |
| Cc1nc2cnc(N(C)C3CCN(CC(F)F)CC3)c(C#N)c2c(=O)n1CC#Cc1ccc(Cl)cc1-c1ccnc2c(C(=O)NS(=O)(=O)CC(F)(F)F)csc12 [compound 1597] | 22.1 nM |
| Cc1nc2cnc(N(C)C3CCN(CC(F)(F)C4(O)CCC4)CC3)c(C#N)c2c(=O)n1CC#Cc1ccc(Cl)cc1-c1ccnc2c(C(=O)O)csc12 [compound 1598] | 37.5 nM |
| CCN(c1ncc2nc(C)n(CC#Cc3ccc(Cl)cc3-c3ccnc4c(C(=O)O)csc34)c(=O)c2c1C#N)C1CCN(C2CC2)CC1 [compound 1600] | 20.3 nM |
| CCN(c1ncc2nc(C)n(CC#Cc3ccc(Cl)cc3-c3ccnc4c(C(=O)NS(C)(=O)=O)csc34)c(=O)c2c1C#N)C1CCN(C2CC(F)(F)C2)CC1 [compound 1601] | 8.05 nM |
| Cc1nc2cnc(N(C)C3CCN([C@H]4C[C@H](F)C4)CC3)c(C#N)c2c(=O)n1CC#Cc1ccc(Cl)cc1-c1ccnc2c(C(=O)NS(C)(=O)=O)csc12 [compound 1602] | 3.88 nM |
| CCN(c1ncc2nc(C)n(CC#Cc3ccc(Cl)cc3-c3ccnc4c(C(=O)NS(C)(=O)=O)csc34)c(=O)c2c1C#N)C1CCN(CC(F)(F)C(F)F)CC1 [compound 1607] | 14.6 nM |
| Cc1nc2cnc(N(C)C3CCN([C@H]4C[C@@H](OC(F)(F)F)C4)CC3)c(C#N)c2c(=O)n1CC#Cc1ccc(Cl)cc1-c1ccnc2c(C(=O)NS(=O)(=O)C3COC3)csc12 [compound 1610] | 6.02 nM |
| Cc1nc2cnc(N(C)C3CCN([C@H]4C[C@@H](OC(F)(F)F)C4)CC3)c(C#N)c2c(=O)n1CC#Cc1ccc(Cl)cc1-c1ccnc2c(C(=O)NS(=O)(=O)c3ccccn3)csc12 [compound 1611] | 3.85 nM |
| CCOP(=O)(OCC)c1csc2c(-c3cc(Cl)ccc3OCCn3c(C)nc4cc(C(F)(F)F)c(N5CCN(C)CC5)c(C#N)c4c3=O)ccnc12 [compound 1612] | 13.7 nM |
| Cc1nc2cc(C(F)(F)F)c(N3CCN(C)CC3)c(C#N)c2c(=O)n1CCOc1ccc(Cl)cc1-c1ccnc2c(P(=O)(O)O)csc12 [compound 1613] | 16.1 nM |
| CCOP(=O)(OCC)c1csc2c(-c3cc(Cl)ccc3OCCn3c(C)nc4cc(C(F)(F)F)c(N5CCN(C6CC6)CC5)c(C#N)c4c3=O)ccnc12 [compound 1614] | 31.4 nM |
| Cc1nc2cc(C(F)(F)F)c(N3CCN(C4CC4)CC3)c(C#N)c2c(=O)n1CCOc1ccc(Cl)cc1-c1ccnc2c(P(=O)(O)O)csc12 [compound 1615] | 14.7 nM |
| CCOP(=O)(OCC)c1csc2c(-c3cc(Cl)ccc3OCCn3c(C)nc4cnc(N(C)C5CCN(CC(F)F)CC5)c(C#N)c4c3=O)ccnc12 [compound 1616] | 11.5 nM |

| SMILES | IC50 |
| --- | --- |
| Cc1nc2cnc(N(C)C3CCN(CC(F)F)CC3)c(C#N)c2c(=O)n1CCOc1ccc(Cl)cc1-c1ccnc2c(P(=O)(O)O)csc12 [compound 1617] | 15.6 nM |
| Cc1cc(-c2cc(Cl)ccc2OCCn2c(C)nc3cc(C(F)(F)F)c(N(C)C)c(C#N)c3c2=O)c2scc(C(=O)O)c2n1 [compound 1619] | 31.6 nM |
| COC(=O)c1csc2c(-c3cc(Cl)ccc3OCCn3c(C)nc4cnc(N(C)C5CCN(CC(F)(F)F)CC5)c(C#N)c4c3=O)ccnc12 [compound 1620] | 17.9 nM |
| Cc1cc(-c2cc(Cl)ccc2OCCn2c(C)nc3c(C)nc(CN(C)C)c(C#N)c3c2=O)c2scc(C(=O)O)c2n1 [compound 1621] | 72.1 nM |
| Cc1cc(-c2cc(Cl)ccc2OCCn2c(C)nc3c(C)nc(-c4c(F)cccc4F)c(C#N)c3c2=O)c2scc(C(=O)O)c2n1 [compound 1622] | 17.3 nM |
| Cc1nc(N2CCN(CCF)CC2)c(C#N)c2c(=O)n(CCOc3ccc(Cl)cc3-c3ccnc4c(C(=O)O)csc34)c(C)nc12 [compound 1624] | 4.17 nM |
| Cc1nc2cnc(C3=CCNCC3)c(C#N)c2c(=O)n1CCOc1ccc(Cl)cc1-c1ccnc2c(C(=O)O)csc12 [compound 1626] | 30.3 nM |
| Cc1cc(-c2cc(Cl)ccc2OCCn2c(C)nc3cnc(N[N+](C)(C)C)c(C#N)c3c2=O)c2scc(C(=O)O)c2n1 [compound 1631] | 16.1 nM |
| Cc1nc2cnc(N3CC4(CNC4)C3)c(C#N)c2c(=O)n1CC#Cc1ccc(Cl)cc1-c1ccnc2c(C(=O)O)csc12 [compound 1633] | 52.6 nM |
| Cc1nc2cnc(N3CC4(CCN4CC(F)F)C3)c(C#N)c2c(=O)n1CCOc1ccc(Cl)cc1-c1ccnc2c(C(=O)O)csc12 [compound 1634] | 17.4 nM |
| Cc1nc2cnc(N3CC4(CCN4CC(C)(C)F)C3)c(C#N)c2c(=O)n1CCOc1ccc(Cl)cc1-c1ccnc2c(C(=O)O)csc12 [compound 1635] | 21.5 nM |
| Cc1nc2cnc(N3CCN(C(C)C)CC3)c(C#N)c2c(=O)n1CC#Cc1ccc(Cl)cc1-c1ccnc2c(C(=O)O)csc12 [compound 1637] | 17.7 nM |
| Cc1nc2cnc(N3CCN(C4CC4(C)C)CC3)c(C#N)c2c(=O)n1CCOc1ccc(Cl)cc1-c1ccnc2c(C(=O)O)csc12 (centres unmarked) [compound 1638] | 38.8 nM |
| Cc1nc2cnc(N3CCN(C4(C)CC(F)(F)C4)CC3)c(C#N)c2c(=O)n1CCOc1ccc(Cl)cc1-c1ccnc2c(C(=O)O)csc12 [compound 1641] | 18.9 nM |
| Cc1nc2cnc(N3CCN([C@H]4C[C@@H]4C(F)(F)F)CC3)c(C#N)c2c(=O)n1CCOc1ccc(Cl)cc1-c1ccnc2c(C(=O)O)csc12 [compound 1642] | 24.5 nM |
| Cc1nc2cnc(N3CCN(C4(CC(F)F)CC4)CC3)c(C#N)c2c(=O)n1CCOc1ccc(Cl)cc1-c1ccnc2c(C(=O)O)csc12 [compound 1643] | 18.8 nM |
| Cc1nc2cnc(N3CC[N+](CCO)(C(F)F)CC3)c(C#N)c2c(=O)n1CC#Cc1ccc(Cl)cc1-c1ccnc2c(C(=O)O)csc12 [compound 1644] | 14.5 nM |
| Cc1nc2cnc(N3CC4CC3CN4C)c(C#N)c2c(=O)n1CCOc1ccc(Cl)cc1-c1ccnc2c(C(=O)O)csc12 (centres unmarked) [compound 1645] | 23.2 nM |
| Cc1nc2cnc(N3CCN(C4CC4)C4(CC4)C3)c(C#N)c2c(=O)n1CCOc1ccc(Cl)cc1-c1ccnc2c(C(=O)O)csc12 [compound 1646] | 26.3 nM |
| Cc1nc2cnc(N3CCC4(CC3)CCN4CC(F)F)c(C#N)c2c(=O)n1CCOc1ccc(Cl)cc1-c1ccnc2c(C(=O)O)csc12 [compound 1647] | 19.6 nM |
| Cc1nc2cnc(N3CCC4(CC3)CN(CC(F)F)C4)c(C#N)c2c(=O)n1CC#Cc1ccc(Cl)cc1-c1ccnc2c(C(=O)NS(C)(=O)=O)csc12 [compound 1648] | 13.3 nM |
| Cc1nc2cnc(N3CCCC4(CCN4CC(F)F)C3)c(C#N)c2c(=O)n1CCOc1ccc(Cl)cc1-c1ccnc2c(C(=O)O)csc12 (centres unmarked) [compound 1649] | 18.3 nM |
| Cc1nc2cnc(N(C)C3CCN(CCF)CC3)c(C#N)c2c(=O)n1CC#Cc1ccc(Cl)cc1-c1ccnc2c(C(=O)O)csc12 [compound 1653] | 26.5 nM |
| Cc1nc2cnc(N(C)C3CCN(CC(C)F)CC3)c(C#N)c2c(=O)n1CCOc1ccc(Cl)cc1-c1ccnc2c(C(=O)O)csc12 (centres unmarked) [compound 1654] | 21 nM |
| Cc1nc2cnc(N(C)C3CCN(CC(C)(C)F)CC3)c(C#N)c2c(=O)n1CCOc1ccc(Cl)cc1-c1ccnc2c(C(=O)O)csc12 [compound 1655] | 13.4 nM |
| Cc1nc2cnc(N(C)C3CCN(C(C)C(F)F)CC3)c(C#N)c2c(=O)n1CCOc1ccc(Cl)cc1-c1ccnc2c(C(=O)O)csc12 (centres unmarked) [compound 1662] | 22.1 nM |
